Results taken from patent publication US20260042764A1, “COMPOSITIONS AND METHODS FOR INHIBITION OF KRAS” (TheRas, Inc., priority 2022, published 2026).

Tests used:
GP2d cells (KRAS G12D) = assay: Cell-based pERK HTRF assay in GP2d cell (Biological Example 2); conditions: GP2d, GP2d (KRAS G12D) cells, pERK HTRF
Procedure, shortened: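 Phospho-ERK in lysed cells was detected by HTRF using Eu cryptate and d2 antibodies, read between 4 and 24 h at room temperature. Prior to lysis, KRAS G12D GP2d cells, seeded the day before in DMEM with 10% FBS, were exposed to compounds for 60 min. Compounds were tested as 9-point half-log curves from 1 μM or 100 nM top, with 0.25% DMSO.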

[1] = molecular target: T1, Avi-KRAS WT (1-169) GppNHp/RAF1 RBD-3xFLAG (52-151) (Homo sapiens, UniProt P01116); assay: Raf1-KRAS WT-GppNHP disruption HTRF assay (Biological Example 1); assay type: binding
T1 construct: Avi-KRAS WT (1-169)
Procedure, shortened: (§1)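 Compound disruption of KRAS-GppNHp/RAF1 RBD binding read by HTRF after two sequential 1 h room-temperature incubations (protein mix, then detection reagents), shaken at 700 rpm. Buffer Tris pH 7.5 with MgCl2, BSA, Tween and 10% DMSO; results given as percent activity relative to DMSO (100%).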

[2] = molecular target: T2, Avi-KRAS G12V (1-169) GppNHp/RAF1 RBD-3xFLAG (52-151) (Homo sapiens, UniProt P01116, G12V); assay: Raf1-KRAS G12V-GppNHP disruption HTRF assay (Biological Example 1); assay type: binding
T2 construct: Avi-KRAS G12V (1-169)
Procedure, shortened: as §1

SW620 cells (KRAS G12V) = assay: Cell-based pERK HTRF assay in SW620 cell (Biological Example 4); conditions: Homo sapiens, SW-620, SW620 (KRAS G12V) cells, pERK HTRF
Procedure, shortened: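 SW620 seeded in RPMI/10% FBS, next day dosed 4 h (top 1 μM, half-log, 9 pts, 0.25% DMSO). Lysed, pERK by d2/Eu cryptate HTRF, 4–24 h RT, 615 nm read.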

[3] = molecular target: T3, Avi-KRAS G12R (1-169) GppNHp/RAF1 RBD-3xFLAG (52-151) (Homo sapiens, UniProt P01116, G12R); assay: Raf1-KRAS G12R-GppNHP disruption HTRF assay (Biological Example 1); assay type: binding
T3 construct: Avi-KRAS G12R (1-169)
Procedure, shortened: as §1

[4] = molecular target: T4, Avi-KRAS G12D (1-169) GppNHp/RAF1 RBD-3xFLAG (52-151) (Homo sapiens, UniProt P01116, G12D); assay: Raf1-KRAS G12D-GppNHP disruption HTRF assay (Biological Example 1); assay type: binding
T4 construct: Avi-KRAS G12D (1-169)
Procedure, shortened: as §1

[5] = KRAS WT, GppNHp-loaded, class symbols
[6] = KRAS G12V, GppNHp-loaded, class symbols
[7] = KRAS G12R, GppNHp-loaded, class symbols
[8] = KRAS G12D, GppNHp-loaded, class symbols

T3 sequence (P01116 1-169 isoform P01116-2 G12R): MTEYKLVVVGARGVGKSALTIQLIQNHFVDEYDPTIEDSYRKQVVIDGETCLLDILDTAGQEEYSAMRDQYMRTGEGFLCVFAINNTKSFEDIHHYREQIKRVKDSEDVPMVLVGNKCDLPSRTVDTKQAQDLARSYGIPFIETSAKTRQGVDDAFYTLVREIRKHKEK
T2 sequence (P01116 1-169 isoform P01116-2 G12V): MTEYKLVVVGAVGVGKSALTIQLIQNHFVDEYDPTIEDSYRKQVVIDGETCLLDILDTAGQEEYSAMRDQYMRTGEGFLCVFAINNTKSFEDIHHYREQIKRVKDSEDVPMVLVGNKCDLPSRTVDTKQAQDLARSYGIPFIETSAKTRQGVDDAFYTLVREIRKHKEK
T1 sequence (P01116 1-169 isoform P01116-2): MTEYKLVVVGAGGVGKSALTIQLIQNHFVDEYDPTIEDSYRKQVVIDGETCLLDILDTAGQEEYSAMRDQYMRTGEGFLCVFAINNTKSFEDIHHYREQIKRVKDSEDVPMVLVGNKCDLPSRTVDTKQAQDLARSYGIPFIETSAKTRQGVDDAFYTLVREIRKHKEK
T4 sequence (P01116 1-169 isoform P01116-2 G12D): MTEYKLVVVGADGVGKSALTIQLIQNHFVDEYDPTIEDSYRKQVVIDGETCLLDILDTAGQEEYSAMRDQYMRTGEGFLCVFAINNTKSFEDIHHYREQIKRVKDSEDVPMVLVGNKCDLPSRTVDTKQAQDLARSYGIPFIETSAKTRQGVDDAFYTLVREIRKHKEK

| IC50 (GP2d cells (KRAS G12D); class symbols) | IC50 [1, 5] | IC50 [2, 6] | IC50 (SW620 cells (KRAS G12V); class symbols) | IC50 [3, 7] | IC50 [4, 8] | IC50 (GP2d cells (KRAS G12D)) | IC50 ([1]; KRAS WT-GppNHp/RAF1 RBD HTRF) | IC50 ([2]; KRAS G12V-GppNHp/RAF1 RBD HTRF) | IC50 (SW620 cells (KRAS G12V)) | IC50 ([3]; KRAS G12R-GppNHp/RAF1 RBD HTRF) | IC50 ([4]; KRAS G12D-GppNHp/RAF1 RBD HTRF) | SMILES |
| --- | --- | --- | --- | --- | --- | --- | --- | --- | --- | --- | --- | --- |
| < 100 nM | < 100 nM | < 100 nM | < 100 nM | < 100 nM | < 100 nM | – | – | – | – | – | – | CCN(c1nc(OC[C@@]23CCCN2C[C@H](F)C3)nc2c(F)c(-c3ccc(F)c4sc(N)c(C#N)c34)c(C(F)(F)F)cc12)[C@H]1CCN(C(=O)[C@@H]2CCCO2)C1 (atropisomer, axis not shown) [Compound 745] |
| – | – | – | – | – | – | < 100 nM | 100 to 1000 nM | 100 to 1000 nM | < 100 nM | 100 to 1000 nM | 100 to 1000 nM | CN(c1nc(OC[C@@]23CCCN2C[C@H](F)C3)nc2c(F)c(-c3ccc(F)c4sc(N)c(C#N)c34)c(C(F)(F)F)cc12)[C@@H]1C[C@@H]2COC(=O)N2C1 [Compound 450] |
| – | – | – | – | – | – | < 100 nM | 100 to 1000 nM | 100 to 1000 nM | < 100 nM | 100 to 1000 nM | 100 to 1000 nM | CN(C)C(=O)c1nnn2c1CN(c1nc(OC[C@@]34CCCN3C[C@H](F)C4)nc3c(F)c(-c4ccc(F)c5sc(N)c(C#N)c45)c(C(F)(F)F)cc13)CC2 [Compound 466] |
| < 100 nM | < 100 nM | < 100 nM | < 100 nM | < 100 nM | < 100 nM | – | – | – | – | – | – | CCN(c1nc(OC[C@@]23CCCN2C[C@H](F)C3)nc2c(F)c(-c3ccc(F)c4sc(N)c(C#N)c34)c(C(F)(F)F)cc12)[C@H]1CCN(C(=O)c2cnsc2)C1 (atropisomer, axis not shown) [Compound 729] |
| – | – | – | – | – | – | < 100 nM | 100 to 1000 nM | 1000 to 10000 nM | < 100 nM | 1000 to 10000 nM | 1000 to 10000 nM | CCN(c1nc(OC[C@@]23CCCN2C[C@H](F)C3)nc2c(F)c(-c3ccc(F)c4sc(N)c(C#N)c34)c(C(F)(F)F)cc12)[C@@H]1C[C@@H](C)N(C(=O)N(C)C)C1 (atropisomer, axis not shown) [Compound 525] |
| < 100 nM | < 100 nM | < 100 nM | < 100 nM | < 100 nM | < 100 nM | – | – | – | – | – | – | CCN(c1nc(OC[C@@]23CCCN2C[C@H](F)C3)nc2c(F)c(-c3ccc(F)c4sc(N)c(C#N)c34)c(C(F)(F)F)cc12)[C@H]1CCN(C(=O)C(C)(F)F)C1 (atropisomer, axis not shown) [Compound 587] |
| – | – | – | – | – | – | < 100 nM | 100 to 1000 nM | 100 to 1000 nM | < 100 nM | 100 to 1000 nM | 100 to 1000 nM | CN1C[C@H](N(C)c2nc(OC[C@@]34CCCN3C[C@H](F)C4)nc3c(F)c(-c4ccc(F)c5sc(N)c(C#N)c45)c(C(F)(F)F)cc23)CC1=O [Compound 285] |
| < 100 nM | < 100 nM | < 100 nM | < 100 nM | < 100 nM | < 100 nM | – | – | – | – | – | – | CCN(c1nc(OC[C@@]23CCCN2C[C@H](F)C3)nc2c(F)c(-c3ccc(F)c4sc(N)c(C#N)c34)c(C(F)(F)F)cc12)[C@H]1CCN(C(=O)[C@H]2CCCCO2)C1 (atropisomer, axis not shown) [Compound 770] |
| – | – | – | – | – | – | < 100 nM | 100 to 1000 nM | 100 to 1000 nM | < 100 nM | 100 to 1000 nM | 100 to 1000 nM | CCC(=O)N1CC[C@@H](N(CC)c2nc(OC[C@@]34CCCN3C[C@H](F)C4)nc3c(F)c(-c4ccc(F)c5sc(N)c(C#N)c45)c(Cl)cc23)[C@H]1C [Compound 324] |
| < 100 nM | < 100 nM | < 100 nM | < 100 nM | < 100 nM | < 100 nM | – | – | – | – | – | – | C/C=C\C(=O)N1CC[C@H](N(CC)c2nc(OC[C@@]34CCCN3C[C@H](F)C4)nc3c(F)c(-c4ccc(F)c5sc(N)c(C#N)c45)c(C(F)(F)F)cc23)C1 (atropisomer, axis not shown) [Compound 677] |
| – | – | – | – | – | – | < 100 nM | 100 to 1000 nM | 100 to 1000 nM | < 100 nM | 100 to 1000 nM | 100 to 1000 nM | C[C@@H]1[C@H](N(C)c2nc(OC[C@@]34CCCN3C[C@H](F)C4)nc3c(F)c(-c4ccc(F)c5sc(N)c(C#N)c45)c(C(F)(F)F)cc23)CCN1C(=O)C(F)F [Compound 458] |
